Source: publication PMC9339481 (Nature chemical biology, 2022)
Read-outs that look alike come from different tables or passages of the source.

What was measured:
[1] = tested on: SW620 cells, HDAC6 substrate alpha-tubulin; assay: Western blot against acetylated alpha-Tubulin; type: cell-based, human; details: 6 h, vs DMSO control
recombinant MBLAC2 = biological target: T1, recombinant MBLAC2 (Homo sapiens, UniProt Q68D91); assay: Palmitoyl-CoA hydrolysis assay; type: biochemical; details: for EC50: assay threshold 10 nM
T1 sequence (Q68D91 1-279): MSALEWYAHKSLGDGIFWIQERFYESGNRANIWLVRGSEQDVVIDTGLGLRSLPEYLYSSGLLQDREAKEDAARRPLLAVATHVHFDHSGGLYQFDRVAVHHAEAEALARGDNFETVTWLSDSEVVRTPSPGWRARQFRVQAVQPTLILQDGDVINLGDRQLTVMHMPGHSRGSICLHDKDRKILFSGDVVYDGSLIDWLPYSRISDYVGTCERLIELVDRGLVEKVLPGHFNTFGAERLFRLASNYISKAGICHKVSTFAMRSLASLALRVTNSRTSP

[2] = tested on: HDACs or other metalloproteins; assay: chemoproteomic competition pulldown assay, whole target panel; details: for affinities (Kd^app) in chemoproteomic assay: doses up to 3000 μM
[3] = tested on: CoREST complex subunits RCOR3 and RCOR1; assay: HDAC complex selectivity from competition pulldown; type: binding, human
HDAC1 and HDAC2 = assay: binding kinetics pulldown experiment; set-up: species or system human; details: 4 °C, 30 μM
class IIa HDACs = assay: chemoproteomic competition pulldown assay, class IIa HDACs; type: binding, human
HDAC6 = details: reported values; cited from earlier work
HDACs 1–3 = assay: chemoproteomic competition pulldown assay, HDACs 1–3; type: binding, human
HDAC8 = biological target: T2, HDAC8 (Homo sapiens, UniProt Q9BY41); assay: HDAC-Glo enzyme activity assay; type: biochemical
T2 sequence (Q9BY41 1-377): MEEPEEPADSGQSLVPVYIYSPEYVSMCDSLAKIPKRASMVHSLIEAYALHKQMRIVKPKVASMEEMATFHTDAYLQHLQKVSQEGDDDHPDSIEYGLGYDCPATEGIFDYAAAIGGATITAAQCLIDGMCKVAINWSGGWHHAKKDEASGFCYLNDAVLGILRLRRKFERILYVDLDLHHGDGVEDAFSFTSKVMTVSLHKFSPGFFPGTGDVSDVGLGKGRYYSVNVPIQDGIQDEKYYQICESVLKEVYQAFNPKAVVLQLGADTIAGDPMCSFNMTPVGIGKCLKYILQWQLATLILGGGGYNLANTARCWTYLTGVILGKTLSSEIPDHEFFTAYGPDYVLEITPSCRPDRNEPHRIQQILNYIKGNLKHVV

[4] = EC50 of MBLAC2 hydrolase activity inhibition

O=C(NO)c1cnc(NC2(c3ccccc3)CC2)nc1 [ACY-738]
acetylation of alpha-Tubulin Lys40 [1]: significant overacetylation

CC(C)[C@H](C(=O)Nc1ccc(C(=O)NO)cc1)c1ccccc1 [AR-42]
EC50 (recombinant MBLAC2; read-out: EC50 of MBLAC2 hydrolase activity inhibition): < 10 nM

CN(C)Cc1c(C(=O)NCCOc2ccc(C(=O)NO)cc2)oc2ccccc12 [Abexinostat]
EC50 (recombinant MBLAC2; [4]): < 10 nM

CCCCOc1ccc(CC(=O)NO)cc1 [Bufexamac]
HDAC binding in chemoproteomic assay [2]: did not bind HDACs

O=C(/C=C/c1ccc(CN(CCO)CCc2c[nH]c3ccccc23)cc1)NO [Dacinostat]
lower EC50 value of RCOR3 compared to RCOR1 and other CoREST members [3]: > 10 fold

Cc1cc(Cl)ccc1OCCCC(=O)NO [Droxinostat]
HDAC binding in chemoproteomic assay [2]: did not bind HDACs

Nc1ccccc1NC(=O)c1ccc(CNC(=O)OCc2cccnc2)cc1 [Entinostat]
time until target HDACs maximally competed (HDAC1 and HDAC2): more than 2 h

Cc1cc(C)cc(C(=O)NOCCCCCC(=O)NO)c1 [LMK235]
class IIa target engagement (class IIa HDACs): no class IIa target engagement at all

CN(C)c1ccc(C(=O)NCCCCCCC(=O)NO)cc1 [M344]
lower EC50 value of RCOR3 compared to RCOR1 and other CoREST members [3]: > 10 fold

Cn1c(/C=C/C(=O)NO)ccc1/C=C/C(=O)c1cccc(F)c1 [MC1568]
class IIa target engagement (class IIa HDACs): no class IIa target engagement at all

CCCCN(Cc1ccc(C(=O)NO)cc1)C(=O)Nc1ccccc1 [Nexturastat A]
pEC50 HDAC6 (HDAC6): 8.3

O=C(O)CCCc1ccccc1 [Phenylbutanoic Acid]
affinities (Kd^app) in chemoproteomic assay [2]: three-digit micromolar

CCCCc1nc2cc(/C=C/C(=O)NO)ccc2n1CCN(CC)CC [Pracinostat]
EC50 (recombinant MBLAC2; [4]): < 10 nM

O=C(CCCCCCNC(=O)c1cnc(N(c2ccccc2)c2ccccc2)nc1)NO [Ricolinostat]
pKd^app range for HDACs 1–3 (HDACs 1–3): 4.9–6.0

C/C=C1\NC(=O)[C@H]2CSSCC/C=C/[C@H](CC(=O)N[C@H](C(C)C)C(=O)N2)OC(=O)[C@H](C(C)C)NC1=O [Romidepsin]
lower EC50 value of RCOR3 compared to RCOR1 and other CoREST members [3]: > 10 fold

Nc1cc(F)ccc1NC(=O)c1ccc(CNC(=O)/C=C/c2cccnc2)cc1 [Tucidinostat]
MBLAC2 enzyme activity, single dose screen (recombinant MBLAC2; 300 nM drug, 30 nM MBLAC2): little if any effect on enzyme activity
effect on MBLAC2 activity (recombinant MBLAC2; at a 1,000-fold higher concentration): did not affect MBLAC2 activity

CCCC(CCC)C(=O)O [Valproic Acid]
affinities (Kd^app) in chemoproteomic assay [2]: three-digit micromolar

O=C(CCCCCCC(=O)Nc1ccccc1)NO [Vorinostat]
activity against HDAC8 (HDAC8): very low activity
